From patent US8197833B2, “Liquid concentrate for preserving cosmetics” (Air Liquide Sante (International), priority 1999, dated 2012)

Legend:
Assay type in all cases: physicochemical
[1] = Compatibility with cosmetics additives (absence of precipitates and/or severe discolorations); conditions: Example 6B: up to 4 parts additive to 100 parts of 15% K sorbate, 30% Na benzoate, 5% phenoxyethanol, 50% water
[2] = as above; conditions: 18.75% water
Method: (§1) To 100 parts by weight of a preparation consisting of 18.75% by weight of K sorbate, 31.25% by weight of phenoxyethanol, 31.25% by weight of benzyl alcohol and 18.75% by weight of demineralized water were added, in individual experiments, up to 4 parts by weight of a number of cosmetics additives, and the compatibility was tested (test for absence of precipitates and/or severe discolorations). […] The above-mentioned preparation was incompatible with the antimicrobial active ingredients Vantocil IB (polyhexamethylene biguanide), bronopol and dibromodicyanobutane since in each case the addition of these active ingredients and storage led to severe discoloration of the solution.
as §1, with “of 15%” for “of 18.75%”, “sorbate, 30%” for “sorbate, 31.25%”, “of Na benzoate, 5%” for “of phenoxyethanol, 31.25%”, “of phenoxyethanol” for “of benzyl alcohol”, “and 50%” for “and 18.75%”, “The abovementioned” for “The above-mentioned”
A preparation consisting of 18.75% by weight of K sorbate, 28.75% by weight of benzyl alcohol, 28.75% by weight of phenoxyethanol, 18.75% by weight of demineralized water and 5% by weight of cosmetics additive was prepared.

[3] = Colour stability, Hazen colour number; conditions: addition to liquid concentrates, Examples 5D-5F
Method: The Hazen colour number is the number of mg of platinum [as potassium hexachloroplatinate (IV) containing cobalt (II) chloride hexahydrate in a ratio of 1.246:1 dissolved in 1000 ml of aqueous hydrochloric acid] which has virtually the same colour as the sample when the path length is the same.
Improvement in the Colour Stability of the Liquid Concentrates According to the Invention

[4] = Example 6A: up to 4 parts additive to 100 parts of 18.75% K sorbate, 31.25% phenoxyethanol, 31.25% benzyl alcohol
[5] = Example 6C: 5% additive in 18.75% K sorbate, 28.75% benzyl alcohol, 28.75% phenoxyethanol

| Compound | compatibility of additive with preparation [1] | compatibility of additive with preparation [2, 4] | compatibility of additive with preparation [2, 5] | effect of additive on colour stability [3] |
| --- | --- | --- | --- | --- |
| OCCCc1ccccc1 [3-phenyl-1-propanol] | sufficiently compatible | sufficiently compatible | – | – |
| COC(=O)c1ccc(O)cc1 [methylparaben] | – | – | sufficiently compatible | – |
| CC(C)(CO)[C@@H](O)C(=O)NCCCO [dexpanthenol] | sufficiently compatible | sufficiently compatible | – | – |
| N#CCCC(Br)(C#N)CBr (stereo not drawn) [dibromodicyanobutane] | incompatible | incompatible | – | – |
| O=C([O-])C(O)c1ccccc1.[K+] (stereo not drawn) [potassium salt of mandelic acid] | sufficiently compatible | sufficiently compatible | – | – |
| CC1(C)C(=O)N(CO)C(=O)N1CO [Glydant XL 1000, 1,3-dimethylol-5,5-dimethylhydantoin] | sufficiently compatible | sufficiently compatible | – | – |
| Cl/C=C\C[N+]12CN3CN(CN(C3)C1)C2.[Cl-] [Dowicil 200] | – | – | sufficiently compatible | – |
| Cc1cc(C(C)(C)C)c(O)c(C(C)(C)C)c1 [2,6-di-tert-butyl-p-cresol] | sufficiently compatible | sufficiently compatible | – | – |
| CCOC(=O)c1ccc(O)cc1 [ethylparaben] | sufficiently compatible | sufficiently compatible | – | – |
| CCCOC(=O)c1ccc(O)cc1 [propylparaben] | – | – | sufficiently compatible | – |
| COc1ccc(O)c(C(C)(C)C)c1 [3-tert-butyl-4-hydroxyanisole] | sufficiently compatible | sufficiently compatible | – | – |
| CC(C)=CCCC(C)=CCCC(C)=CCO [farnesol] | sufficiently compatible | sufficiently compatible | – | – |
| benzalkonium chloride | sufficiently compatible | sufficiently compatible | – | – |
| OCCc1ccccc1 [phenethyl alcohol] | sufficiently compatible | sufficiently compatible | – | – |
| O=C([O-])CC(O)(CC(=O)[O-])C(=O)[O-].[Na+].[Na+].[Na+] [sodium citrate] | – | – | – | significantly improves the colour stability |
| CCCCNC(=O)OCC#CI [iodopropynylbutyl carbamate] | sufficiently compatible | sufficiently compatible | – | – |
| O=C1O[C@H]([C@@H](O)CO)C(O)=C1O [ascorbic acid] | sufficiently compatible | sufficiently compatible | – | – |
| O=C1O[C@H]([C@@H](O)CO)C([O-])=C1O.[Na+] [sodium ascorbate] | sufficiently compatible | sufficiently compatible | – | – |
| O=[N+]([O-])C(Br)(CO)CO [bronopol] | incompatible | incompatible | – | – |
| vitamin E | sufficiently compatible | sufficiently compatible | – | – |
